Assay results: patent US20250092360A1, “METHODS AND COMPOSITIONS FOR GENERATING SOMATOSTATIN+ INTERNEURONS FROM HUMAN FOREBRAIN NEURAL PROGENITOR CELLS” (Trailhead Biosystems Inc., priority 2023, published 2025)
“Also recorded” adds a separate entry of the source.

Assays:
[1] = test system: human pluripotent stem cells; test: Factor criticality analysis, stage 1 recipe (dynamic profile analysis); type: cell-based; settings: other five stage 1 factors present, FIG. 11; for expression level of FEZF2 when the factor is removed: 2000 with all six factors; for expression level of SIX3 when the factor is removed: 3000 with all six factors; for expression level of OTX2 when the factor is removed: 5500 with all six factors
Text: To assess the impact of the elimination of each validated factor, dynamic profile analysis was used and compared the expression level of genes of interest in absence of each finalized factor while others are present. […] When Purmorphamine was removed, levels of FEZF2 and SIX3 were decreased to 1000 and below 3000, while levels of OTX2 increased to 6500.

[2] = test system: human pluripotent stem cells; test: HD-DoE stage 1, first 12-factor experiment: gene expression (qPCR) after 3-day treatment; type: cell-based; settings: for impact on expression of OTX2: dynamic profile / model; for factor contribution, expression of SIX3 / factor contribution, expression of FEZF2: positive impact; for factor contribution, expression of SIX3: model optimized for maximal SIX3, 3-day treatment, qPCR; for factor contribution, expression of FEZF2: model optimized for maximum FEZF2 at 3576
Text: This example utilizes a method of High-Dimensional Design of Experiments (HD-DoE), as previously described in Bukys et al. (2020) […] 23:101346. The method employs computerized design geometries to simultaneously test multiple process inputs and offers mathematical modeling of a deep effector/response space. The method allows for finding combinatorial signaling inputs that control a complex process, such as during cell differentiation. It allows testing of multiple plausible critical process parameters, as such parameters impact output responses, such as gene expression. Because gene expression provides hallmark features of the phenotype of, for example, a human cell, the method can be applied to identify, and understand, which signaling pathways control cell fate. In the current example, the HD-DOE method was applied with the intent to find conditions for induction of […] neural progenitor-expressed genes, directly from the pluripotent stem cell state. To develop the recipe for each stage, the impact of agonists and antagonists of multiple signaling pathways (herein called effectors) on the expression of two sets of 53 pre-selected genes, after a 3-day treatment, has been tested and modeled. These effectors are small molecules or proteins that are commonly used during stepwise differentiation of stem cells to specific fates. Choice of the effectors were based on current literature on neural induction in forebrain region of developing brain and differentiation of stem cells to neural progenitors. To test the effectors, experiments with at least 8 factors were designed that can assess the response of cells to 48 or more different combinations of effectors in a range of concentrations. To analyze the models, we focused on expression of genes involved in development and patterning of the anterior neuroectoderm and forebrain including OTX2 (Hoch et al. (2015) Cell Reports 12:482-494), SIX3 (Lagutin et al. (2003) Genes & Development 17:368-379) and FEZF2 (Zhang et al. (2014) Development 141:4794-[…]). At later stages we focused on dorsoventral patterning of telencephalon and gene expressed in ventral forebrain including NKX2-1 and absence of PAX6 which is a dorsal forebrain marker (Stoykova et al. (2000) J. Neurosci. 20:8042-8050). The impact of each effector on gene expression level is defined by a parameter called factor contribution that is calculated for each effector during the modeling. To identify the recipe for stage 1 of differentiation, 96 different combinations of effectors generated using Design-of-Experiments compression through D-optimality were robotically prepared. The effector combinations were prepared in a basal media and were subsequently added to the cells, which were then allowed to differentiate. Three days later RNA extraction was performed, and gene expression was obtained using quantitative PCR analysis. The data were normalized and modeled using partial least squares regression analysis to the effector design, resulting in the generation of gene-specific models, which after model tuning for maximal Q2 predictive power, provided explanation of the effectors ability to control the expression of individual genes, combinatorically, and individually. Solutions within the tested space could then be explored to address desirability. Optimizing for maximal expression of SIX3 at 3300 and FEZF2 1355 expression values led to robust solutions. This model was derived from testing 12 effectors including AGN193109, LDN193189, CHIR99021, XAV939, IGF2, Purmorphamine, 4-oxo-RA, TTNPB, SR11237, FGF8, PD0325901 and […]. […] The model was also optimized for maximum expression of FEZF2 separately at 3576 expression value to find any additional factors that can boost expression of forebrain genes. […] To find the set of factors that have the potential to optimize all 3 genes in this experiment, a new assessment was done through dynamic profile analysis with focus on maximal expression of OTX2, FEZF2 and SIX3.

[3] = test system: forebrain-committed neural stem cells; test: HD-DoE stage 2, 12-factor experiment: NKX2-1 expression; type: cell-based, human; settings: model / dynamic profile, in words
How it was run: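 Forebrain-committed neural stem cells were treated for 3 days after stage 1 in a 12-factor high-dimensional DoE (LDN193189, BMP7, PD0325901, MK2206, A8301, XAV939, CHIR99021, purmorphamine, SANT-1, AGN193109, TTNPB, GSI-XX) to drive ventral forebrain identity. The read-out was NKX2-1 expression. Dynamic profile modelling also targeted minimal PAX6 and NKX2-2.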

[4] = test system: forebrain-committed neural stem cells; test: Factor criticality analysis, stage 2 recipe; type: cell-based, human; settings: for expression level of PAX6 when the factor is removed / expression level of NKX2-2 when the factor is removed / expression level of NKX2-1 when the factor is removed: other three stage 2 factors present; for expression level of PAX6 when the factor is removed: 0 with all four factors; for expression level of NKX2-2 when the factor is removed: 100 with all four factors; for expression level of NKX2-1 when the factor is removed: 5000 with all four factors
Method: To assess the impact of the elimination of each validated factor, dynamic profile analysis was used and compared the expression level of genes of interest in absence of each finalized factor while others are present.
In the stage 2 recipe, each of the four finalized factors were removed while the other three factors remained present and expression levels of NKX2-1, PAX6 and NKX2-2 were assessed compared to presence of all four factors. Absence of PD0325901 reduced the levels of NKX2-1 and NKX2-2 while increasing PAX6 from 5000 to 3200, 100 to 0 and 0 to 5000, respectively. […] Removing XAV939 reduced the levels of NKX2-1 from 5000 to 3000, while increasing both PAX6 and NKX2-2 to 10000 and 200, respectively. Another observation was the interaction between XAV939 and Purmorphamine. In the absence of XAV939, the impact of Purmorphamine on NKX2-1 became negative and, as it is shown in interaction plot of FIG. 14, the level of NKX2-1 is higher when both factors are present.

[5] = dynamic profile analysis, in words

c1ccc2c(-c3cnn4cc(-c5ccc(N6CCNCC6)cc5)cnc34)ccnc2c1 [LDN193189]
expression level of FEZF2 when the factor is removed [1]: 1000 | expression level of SIX3 when the factor is removed [1]: 0 | expression level of OTX2 when the factor is removed [1]: 4000 | factor contribution, important input for high expression of SIX3 ([2]; FIG. 2 legend): 24.9 | impact on expression of OTX2 ([2]; in words): positive impact | factor contribution, expression of OTX2 ([2]; positive effector, model optimized for maximum OTX2 at 6348): 8 | factor contribution, expression of SIX3 [2]: 16 | factor contribution, expression of FEZF2 [2]: 25 | impact on expression of NKX2-1 [3]: increase | expression level of PAX6 when the factor is removed [4]: below 0 | expression level of NKX2-2 when the factor is removed [4]: below 0 | expression level of NKX2-1 when the factor is removed [4]: did not significantly change

O=C(NOC[C@H](O)CO)c1ccc(F)c(F)c1Nc1ccc(I)cc1F [PD0325901]
expression level of FEZF2 when the factor is removed [1]: drop | expression level of SIX3 when the factor is removed [1]: did not have a significant impact | expression level of OTX2 when the factor is removed [1]: did not have a significant impact | impact on expression of OTX2 ([2]; in words): positive impact | factor contribution, expression of FEZF2 [2]: 10 | impact on expression of NKX2-1 [3]: increase; also recorded: Positive impact | expression level of PAX6 when the factor is removed [4]: 5000 | expression level of NKX2-2 when the factor is removed [4]: 0 | expression level of NKX2-1 when the factor is removed [4]: 3200

c1ccc2c(Oc3nc(Nc4ccc(N5CCOCC5)cc4)c4ncn(C5CCCCC5)c4n3)cccc2c1 [Purmorphamine]
expression level of FEZF2 when the factor is removed [1]: 1000 | expression level of SIX3 when the factor is removed [1]: below 3000 | expression level of OTX2 when the factor is removed [1]: 6500 | impact on expression of OTX2 ([2]; in words): negative effect | impact on expression of FEZF2 [2, 5]: positive impact | impact on expression of SIX3 [2, 5]: positive impact | factor contribution, expression of SIX3 [2]: 5 | factor contribution, expression of FEZF2 [2]: 7 | impact on expression of NKX2-1 [3]: increase | impact on NKX2-1 in the absence of XAV939 ([4]; interaction plot FIG. 14): negative
